Assay results published in ChEMBL document CHEMBL2331136, “Apoptosis-inducing activity of the actin-depolymerizing agent aplyronine A and its side-chain derivatives” (Bioorg Med Chem Lett, 2013).
One block for each compound: values may come before it. Active and inactive are the calls of the source. The calls are words filed in the database; no cut-off is given here.

Tests used:
[1] = Induction of F-actin (unknown origin) polymerization after 1 hr by spectrofluorometric analysis; parameters: species or system Homo sapiens
HL-60 [2] = test: Cytotoxicity against human HL60 cells after 72 hrs by MTT assay; type: functional, cell-based; settings: HL-60, 72 h
HL-60 [3] = test: Induction of apoptosis in human HL60 cells assessed as nuclear shrinkage and fragmentation at 30 uM after 12 hrs using rhodamine-phalloidin staining by fluorescence microscopy; type: functional, cell-based
HL-60 [4] = test: Cytotoxicity against human HL60 cells after 24 hrs by trypan blue dye exclusion assay; type: functional, cell-based
HL-60 [5] = test: Cytotoxicity against human HL60 cells after 24 hrs by trypan blue dye exclusion assay in presence of Z-VAD-FMK; type: functional, cell-based
HL-60 [6] = test: Induction of apoptosis in human HL60 cells assessed as activation of caspase-3 at 10 to 30 uM after 18 hrs by spectrophotometric analysis; type: functional, cell-based
HL-60 [7] = test: Induction of apoptosis in human HL60 cells assessed as disruption and aggregation of actin filaments at 30 uM after 12 hrs using rhodamine-phalloidin staining by fluorescence microscopy; type: functional, cell-based
HL-60 [8] = test: Induction of apoptosis in human HL60 cells assessed as nuclear shrinkage and fragmentation at 30 uM after 12 hrs using rhodamine-phalloidin staining by fluorescence microscopy in presence of Z-VAD-FMK; type: functional, cell-based
HL-60 [9] = test: Induction of apoptosis in human HL60 cells assessed as DNA fragmentation after 24 hrs by agarose gel electrophoresis; type: functional, cell-based
HL-60 [10] = test: Induction of apoptosis in human HL60 cells assessed as activation of caspase-3 at 0.1 to 1 nM after 18 hrs by spectrophotometric analysis; type: functional, cell-based
HeLa S3 [11] = test: Cytotoxicity against human HeLaS3 cells after 48 hrs by trypan blue dye exclusion assay; type: functional, cell-based
HeLa S3 [12] = test: Cytotoxicity against human HeLaS3 cells after 48 hrs by trypan blue dye exclusion assay in presence of Z-VAD-FMK; type: functional, cell-based
HL-60 [13] = test: Induction of apoptosis in human HL60 cells assessed as disruption and aggregation of actin filaments at 0.1 nM after 12 hrs using rhodamine-phalloidin staining by fluorescence microscopy; type: functional, cell-based
[14] = Cytotoxicity against human HeLaS3 cells after 72 hrs by MTT assay; type: functional, cell-based; settings: HeLa S3, 72 h
HL-60 [15] = test: Induction of apoptosis in human HL60 cells assessed as nuclear shrinkage and fragmentation at 1 nM after 12 hrs using rhodamine-phalloidin staining by fluorescence microscopy in presence of Z-VAD-FMK; type: functional, cell-based
HL-60 [16] = test: Induction of apoptosis in human HL60 cells assessed as disruption and aggregation of actin filaments at 1 nM after 12 hrs using rhodamine-phalloidin staining by fluorescence microscopy; type: functional, cell-based
HeLa S3 [17] = test: Induction of apoptosis in human HeLaS3 cells assessed as DNA fragmentation after 24 hrs by agarose gel electrophoresis; type: functional, cell-based
HL-60 [18] = test: Induction of apoptosis in human HL60 cells assessed as nuclear shrinkage and fragmentation at 1 nM after 12 hrs using rhodamine-phalloidin staining by fluorescence microscopy; type: functional, cell-based

SMILES: CC(=O)O[C@@H]([C@@H](C)[C@@H](/C=C/CCc1ccccc1)OC(=O)[C@H](C)N(C)C)[C@H](C)/C=C/N(C)C=O
- IC50 [1]: 85 µM
- IC50 (HL-60 [2]): 53 µM

SMILES: COCC(C(=O)O[C@@H]1C/C=C/C=C/C(=O)O[C@H]([C@@H](C)[C@@H](O)[C@@H](C)CC[C@@H](OC(=O)C(C)N(C)C)[C@H](C)[C@H](OC(C)=O)[C@H](C)/C=C/N(C)C=O)C/C=C/[C@H](OC)C[C@H](C)C/C=C(\C)[C@@H](OC)CC[C@@H](C)[C@@H](O)[C@@H]1C)N(C)C (some centres not stated) [APLYRONINE A]
- IC50 [1]: 1.6 µM
- Activity (HL-60 [10]): Active
- Activity (HeLa S3 [11]): Dose-dependent effect
- Activity (HeLa S3 [12]): inactive
- Activity (HL-60 [4]): Dose-dependent effect
- Activity (HL-60 [5]): inactive
- Activity (HL-60 [13]): Active
- IC50 [14]: 0.00029 µM
- Activity (HL-60 [15]): inactive
- Activity (HL-60 [16]): Active
- Activity (HeLa S3 [17]): Active
- Activity (HL-60 [9]): Active
- Activity (HL-60 [18]): Active

SMILES: COC[C@@H](OC)C(=O)O[C@H](CC[C@H](C)[C@@H](C[C@@H]1OC(=O)C[C@@H](O)C/C=C/C(=O)[C@H](C)[C@H](OC)c2coc(n2)-c2coc(n2)-c2coc(n2)/C=C/C[C@H](OC)[C@H]1C)OC)[C@H](C)[C@H](OC(C)=O)[C@H](C)/C=C/N(C)C=O [MYCALOLIDE B]
- IC50 [1]: 1.7 µM
- Activity (HeLa S3 [11]): Dose-dependent effect
- Activity (HeLa S3 [12]): inactive
- Activity (HL-60 [4]): Dose-dependent effect
- Activity (HL-60 [5]): inactive
- IC50 [14]: 0.052 µM
- IC50 (HL-60 [2]): 0.0047 µM
- Activity (HeLa S3 [17]): Active
- Activity (HL-60 [9]): Active

Now from value to compound, other results behind:

- IC50 [1]: 210 µM
SMILES: C/C=C/[C@@H](OC(=O)[C@H](C)N(C)C)[C@H](C)[C@H](OC(C)=O)[C@H](C)/C=C/N(C)C=O
- IC50 (HL-60 [2]): 240 µM

- IC50 [1]: 47 µM
SMILES: CC(=O)O[C@@H]([C@@H](C)[C@@H](/C=C/c1ccccc1)OC(=O)[C@H](C)N(C)C)[C@H](C)/C=C/N(C)C=O
- IC50 (HL-60 [2]): 27.5 µM

- IC50 [1]: 21 µM
SMILES: CC(=O)O[C@@H]([C@@H](C)[C@@H](/C=C/CCCCc1ccccc1)OC(=O)[C@H](C)N(C)C)[C@H](C)/C=C/N(C)C=O
- Activity (HL-60 [3]): Active
- Activity (HL-60 [4]): Active
- Activity (HL-60 [5]): inactive
- Activity (HL-60 [6]): Active
- Activity (HL-60 [7]): Active
- Activity (HL-60 [8]): inactive
- IC50 (HL-60 [2]): 12.7 µM
- Activity (HL-60 [9]): Active
